Experimental findings from patent US11840528B2 (Hoffmann-La Roche Inc., priority 2018, dated 2023) are described below.

Test [1] concerns the target T1, h-GABA-A α5β3γ2 (Homo sapiens, UniProt P18507+P31644). Description: [3H]flumazenil competition binding assay, membranes of HEK293 cells expressing GABAA receptors. The note with it: displacement of [3H]-Flumazenil 0.5 nM, HEK293 cells expressing human receptors, mean of two determinations; Table 1. In a few lines: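 Receptor source: human α5β3γ2 transiently transfected into HEK293 cells, membranes in pH 7.5 Krebs-tris. Filtration through GF/C, then scintillation counting.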
(Displacement assays read how much labelled ligand stays bound in the presence of the test substance.)

Test [2] addresses T1, h-GABA-A α5β3γ2. Description: Two-electrode voltage clamp electrophysiology in Xenopus laevis oocytes expressing GABAA receptors, modulation of GABA EC20 current. The class given is cell-based. On the set-up: host or cells: Xenopus laevis oocytes micro-injected with RNA transcripts of the subunits. The note with it: Table 1; for Efficacy (GABA) %: % modulation of GABA EC20 = 100*(Fold increase-1); for Fold increase h-GABA-A α5β3γ2 oocyte: test compound at approx. 30 fold its Ki, GABA at EC20. In a few lines: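 Modulation is reported as % of the GABA EC20 current, calculated as 100*(Fold increase−1) from the peak ratio between a second GABA response carrying compound (applied at roughly 30-fold Ki) and a preceding control response. Oocytes expressing human α5β3γ2 were clamped at −80 mV at room temperature, 3–5 days after injection.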
On the technique in general: Two-electrode voltage clamp is typically applied to oocytes expressing channels or transporters.

As a reminder, the Ki is the equilibrium dissociation constant of an inhibitor or competing ligand from its target. For the molecule `Cc1ccc(-c2noc(C)c2Cn2ncc(N3CC[C@H](C(C)(C)O)C3)cc2=O)cn1` [Example 120, 5-((3S)-3-(2-hydroxypropan-2-yl)pyrrolidin-1-yl)-2-((5-methyl-3-(6-methylpyridin-3-yl)-1,2-oxazol-4-yl)methyl)pyridazin-3-one], the Ki at h-GABA-A α5β3γ2 [1] came out at 7.3 nM. Further, on h-GABA-A α5β3γ2 [2], the “Efficacy (GABA) %” value came out at 172% and the “Fold increase h-GABA-A α5β3γ2 oocyte” value was 2.72.
`Cc1ccc(-c2noc(C)c2Cn2ncc(N3CC(Oc4ccc(F)cc4)C3)cc2=O)cn1` [Example 123, 5-[3-(4-fluorophenoxy)azetidin-1-yl]-2-[[5-methyl-3-(6-methyl-3-pyridyl)isoxazol-4-yl]methyl]pyridazin-3-one] showed a Ki at h-GABA-A α5β3γ2 [1] of 18.6 nM. Also, on h-GABA-A α5β3γ2 [2], the “Efficacy (GABA) %” value was determined as 152% and the “Fold increase h-GABA-A α5β3γ2 oocyte” value is on record as 2.52.
The matching figures for `Cc1ccc(-c2noc(C)c2Cn2ncc(N3CC(Oc4ccccn4)C3)cc2=O)cn1` [Example 124, 2-[[5-methyl-3-(6-methyl-3-pyridyl)isoxazol-4-yl]methyl]-5-[3-(2-pyridyloxy)azetidin-1-yl]pyridazin-3-one]: 12 nM, 148% and 2.48.
The molecule `Cc1ccc(-c2noc(C)c2Cn2ncc(N3CC(Oc4cccnc4)C3)cc2=O)cn1` [Example 126, 2-[[5-methyl-3-(6-methyl-3-pyridyl)isoxazol-4-yl]methyl]-5-[3-(3-pyridyloxy)azetidin-1-yl]pyridazin-3-one] came in with a Ki on h-GABA-A α5β3γ2 [1] of 9.4 nM. Moreover, on h-GABA-A α5β3γ2 [2], the “Efficacy (GABA) %” value worked out at 134% and the “Fold increase h-GABA-A α5β3γ2 oocyte” value amounted to 2.34.
The matching figures for `Cc1ccc(-c2noc(C)c2Cn2ncc(N3CC(Oc4cccc(F)c4)C3)cc2=O)cn1` [Example 127, 5-[3-(3-fluorophenoxy)azetidin-1-yl]-2-[[5-methyl-3-(6-methyl-3-pyridyl)isoxazol-4-yl]methyl]pyridazin-3-one]: 7.3 nM, 153% and 2.53.
Molecule `Cc1ccc(-c2noc(C)c2Cn2ncc(N3CC(Oc4ccccc4F)C3)cc2=O)cn1` [Example 128, 5-[3-(2-fluorophenoxy)azetidin-1-yl]-2-[[5-methyl-3-(6-methyl-3-pyridyl)isoxazol-4-yl]methyl]pyridazin-3-one] had a Ki at h-GABA-A α5β3γ2 [1] of 11.1 nM. On h-GABA-A α5β3γ2 [2], the “Efficacy (GABA) %” value amounted to 120% and the “Fold increase h-GABA-A α5β3γ2 oocyte” value was found to be 2.2.
`Cc1ccc(-c2noc(C)c2Cn2ncc(N3CC(Oc4ccncc4)C3)cc2=O)cn1` [Example 129, 2-[[5-methyl-3-(6-methyl-3-pyridyl)isoxazol-4-yl]methyl]-5-[3-(4-pyridyloxy)azetidin-1-yl]pyridazin-3-one] gave a Ki on h-GABA-A α5β3γ2 [1] of 4.5 nM. On h-GABA-A α5β3γ2 [2], the “Efficacy (GABA) %” value amounted to 198% and the “Fold increase h-GABA-A α5β3γ2 oocyte” value is recorded as 2.98.
With `Cc1ccc(-c2noc(C)c2Cn2ncc(N3CC(Oc4ccc(Cl)cn4)C3)cc2=O)cn1` [Example 130, 5-[3-[(5-chloro-2-pyridyl)oxy]azetidin-1-yl]-2-[[5-methyl-3-(6-methyl-3-pyridyl)isoxazol-4-yl]methyl]pyridazin-3-one], the affinity at h-GABA-A α5β3γ2 [1] corresponds to a Ki of 25.1 nM. Besides, on h-GABA-A α5β3γ2 [2], the “Efficacy (GABA) %” value is reported as 187% and the “Fold increase h-GABA-A α5β3γ2 oocyte” value is 2.87.
At h-GABA-A α5β3γ2 [1], `Cc1ccc(-c2noc(C)c2Cn2ncc(N3CC4(C[C@H](O)CO4)C3)cc2=O)cn1` [Example 131, 5-[(7S)-7-hydroxy-5-oxa-2-azaspiro[3.4]octan-2-yl]-2-[[5-methyl-3-(6-methyl-3-pyridyl)isoxazol-4-yl]methyl]pyridazin-3-one] showed a Ki of 17 nM. On h-GABA-A α5β3γ2 [2], the “Efficacy (GABA) %” value amounted to 105% and the “Fold increase h-GABA-A α5β3γ2 oocyte” value turned out to be 2.05.
In the case of `Cc1ccc(-c2noc(C)c2Cn2ncc(N3CC4(C[C@@H](O)CO4)C3)cc2=O)cn1` [Example 132, 5-[(7R)-7-hydroxy-5-oxa-2-azaspiro[3.4]octan-2-yl]-2-[[5-methyl-3-(6-methyl-3-pyridyl)isoxazol-4-yl]methyl]pyridazin-3-one], the affinity at h-GABA-A α5β3γ2 [1] corresponds to a Ki of 19.5 nM. In addition, on h-GABA-A α5β3γ2 [2], the “Efficacy (GABA) %” value amounted to 119% and the “Fold increase h-GABA-A α5β3γ2 oocyte” value was determined as 2.19.
At h-GABA-A α5β3γ2 [1], `CO[C@@H]1COC2(C1)CN(c1cnn(Cc3c(-c4ccc(C)nc4)noc3C)c(=O)c1)C2` [Example 133, 5-[(7S)-7-methoxy-5-oxa-2-azaspiro[3.4]octan-2-yl]-2-[[5-methyl-3-(6-methyl-3-pyridyl)isoxazol-4-yl]methyl]pyridazin-3-one] returned an inhibition constant Ki of 81.2 nM. Moreover, on h-GABA-A α5β3γ2 [2], the “Efficacy (GABA) %” value came to 172% and the “Fold increase h-GABA-A α5β3γ2 oocyte” value is reported as 2.72.
Regarding `CO[C@H]1COC2(C1)CN(c1cnn(Cc3c(-c4ccc(C)nc4)noc3C)c(=O)c1)C2` [Example 134, 5-[(7R)-7-methoxy-5-oxa-2-azaspiro[3.4]octan-2-yl]-2-[[5-methyl-3-(6-methyl-3-pyridyl)isoxazol-4-yl]methyl]pyridazin-3-one], the Ki at h-GABA-A α5β3γ2 [1] was 16.6 nM. In addition, at h-GABA-A α5β3γ2 [2], the “Efficacy (GABA) %” value stood at 111% and the “Fold increase h-GABA-A α5β3γ2 oocyte” value is recorded as 2.11.
`CCO[C@H]1COC2(C1)CN(c1cnn(Cc3c(-c4ccc(C)nc4)noc3C)c(=O)c1)C2` [Example 135, 5-[(7R)-7-ethoxy-5-oxa-2-azaspiro[3.4]octan-2-yl]-2-[[5-methyl-3-(6-methyl-3-pyridyl)isoxazol-4-yl]methyl]pyridazin-3-one]: on h-GABA-A α5β3γ2 [1], the affinity, expressed as Ki, was 28.1 nM. Moreover, on h-GABA-A α5β3γ2 [2], the “Efficacy (GABA) %” value was found to be 119% and the “Fold increase h-GABA-A α5β3γ2 oocyte” value worked out at 2.19.
The matching figures for `Cc1ccc(-c2noc(C)c2Cn2ncc(N3CC(OC4CC4)C3)cc2=O)cn1` [Example 136, 5-[3-(cyclopropoxy)azetidin-1-yl]-2-[[5-methyl-3-(6-methyl-3-pyridyl)isoxazol-4-yl]methyl]pyridazin-3-one]: 5.2 nM, 96% and 1.96.
At h-GABA-A α5β3γ2 [1], `Cc1ccc(-c2noc(C)c2Cn2ncc(N(C)C3CN(C4CC4)C3)cc2=O)cn1` [Example 137, 5-((1-cyclopropylazetidin-3-yl)(methyl)amino)-2-((5-methyl-3-(6-methylpyridin-3-yl)isoxazol-4-yl)methyl)pyridazin-3(2H)-one] had a Ki of 22.9 nM. Also, at h-GABA-A α5β3γ2 [2], the “Efficacy (GABA) %” value is recorded as 110% and the “Fold increase h-GABA-A α5β3γ2 oocyte” value amounted to 2.1.
Regarding `Cc1ccc(-c2noc(C)c2Cn2ncc(N3CC(Oc4ccc(Cl)nc4)C3)cc2=O)cn1` [Example 138, 5-[3-[(6-chloro-3-pyridyl)oxy]azetidin-1-yl]-2-[[5-methyl-3-(6-methyl-3-pyridyl)isoxazol-4-yl]methyl]pyridazin-3-one], affinity on h-GABA-A α5β3γ2 [1] was put at a Ki of 9.2 nM. Besides, at h-GABA-A α5β3γ2 [2], the “Efficacy (GABA) %” value was 105% and the “Fold increase h-GABA-A α5β3γ2 oocyte” value amounted to 2.05.
`COC1CCN(c2cnn(Cc3c(-c4ccc(C)nc4)noc3C)c(=O)c2)CC1` [Example 139, 5-(4-methoxy-1-piperidyl)-2-[[5-methyl-3-(6-methyl-3-pyridyl)isoxazol-4-yl]methyl]pyridazin-3-one] registered a Ki on h-GABA-A α5β3γ2 [1] of 19.3 nM. Further, on h-GABA-A α5β3γ2 [2], the “Efficacy (GABA) %” value amounted to 132% and the “Fold increase h-GABA-A α5β3γ2 oocyte” value is listed as 2.32.
At h-GABA-A α5β3γ2 [1], `COC1CN(c2cnn(Cc3c(-c4cc(C)on4)noc3C)c(=O)c2)C1` [Example 140, 5-(3-methoxyazetidin-1-yl)-2-[[5-methyl-3-(5-methylisoxazol-3-yl)isoxazol-4-yl]methyl]pyridazin-3-one] showed a Ki of 8.5 nM. At h-GABA-A α5β3γ2 [2], the “Efficacy (GABA) %” value amounted to 62% and the “Fold increase h-GABA-A α5β3γ2 oocyte” value worked out at 1.62.
The matching figures for `Cc1cc(-c2noc(C)c2Cn2ncc(N3CC(OCC4CC4)C3)cc2=O)no1` [Example 141, 5-[3-(cyclopropylmethoxy)azetidin-1-yl]-2-[[5-methyl-3-(5-methylisoxazol-3-yl)isoxazol-4-yl]methyl]pyridazin-3-one]: 16 nM, 107% and 2.07.
As for `Cc1cc(-c2noc(C)c2Cn2ncc(N3CC4(CCCO4)C3)cc2=O)no1` [Example 142, 2-[[5-methyl-3-(5-methylisoxazol-3-yl)isoxazol-4-yl]methyl]-5-(5-oxa-2-azaspiro[3.4]octan-2-yl)pyridazin-3-one], at h-GABA-A α5β3γ2 [1], affinity was put at a Ki of 15.4 nM. Besides, on h-GABA-A α5β3γ2 [2], the “Efficacy (GABA) %” value is 48% and the “Fold increase h-GABA-A α5β3γ2 oocyte” value is listed as 1.48.
`Cc1onc(-c2ccc(Cl)cn2)c1Cn1ncc(N2CC(OCC3CC3)C2)cc1=O` [Example 143, 2-((3-(5-Chloropyridin-2-yl)-5-methylisoxazol-4-yl)methyl)-5-(3-(cyclopropylmethoxy)azetidin-1-yl)pyridazin-3(2H)-one] showed a Ki at h-GABA-A α5β3γ2 [1] of 3.3 nM. At h-GABA-A α5β3γ2 [2], the “Efficacy (GABA) %” value worked out at 68% and the “Fold increase h-GABA-A α5β3γ2 oocyte” value amounted to 1.68.
With `Cc1onc(-c2ccc(Cl)cn2)c1Cn1ncc(N2CC3(CCCO3)C2)cc1=O` [Example 144, 2-((3-(5-Chloropyridin-2-yl)-5-methylisoxazol-4-yl)methyl)-5-(5-oxa-2-azaspiro[3.4]octan-2-yl)pyridazin-3(2H)-one], the Ki on h-GABA-A α5β3γ2 [1] came out at 3.2 nM. On h-GABA-A α5β3γ2 [2], the “Efficacy (GABA) %” value is listed as 20% and the “Fold increase h-GABA-A α5β3γ2 oocyte” value was found to be 1.2.
